A short description of data set [1]: Solubility in gastric juice or intestinal juice model fluid (precipitation method using DMSO). Format: physicochemical. As to conditions: room temperature. In short, it runs like this: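 Compound in DMSO added to JP disintegration test fluid 1 (pH 1.2) or fluid 2 (pH 6.8) and shaken 24 h at room temperature. After filtration, dissolved concentration (μg/mL) determined by UV absorbance against compound calibration curves.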

Where [2] appears, read: pH 1.2, simulated gastric fluid, kinetic from dmso stock, 1st fluid for Disintegration Test of Japanese Pharmacopoeia (pH: 1.2), read-out: Solubility (μg/mL) 1st fluid.
The mark [3] stands for this setting: pH 6.8, kinetic from dmso stock, 2nd fluid for Disintegration Test of Japanese Pharmacopoeia (pH: 6.8), read-out: Solubility (μg/mL) 2nd fluid.

Our source for the solubility and melting point values is US10570117B2, “Phenylimidazole compound” (Otsuka Pharmaceutical Factory, Inc., priority 2015, dated 2020).

Converted amounts (≈) assume the structure as drawn. Read-outs that look alike come from different tables or passages of the source.

The melting point is the temperature of the solid-liquid transition.

Compound `COc1cc(OCc2ncc(C(F)(F)F)cc2F)ccc1-c1cnc(-c2ccc(F)nc2)[nH]1` [Example 139, 3-fluoro-2-[[4-(2-(6-fluoropyridin-3-yl)-1H-imidazol-5-yl)-3-methoxyphenoxy]methyl]-5-(trifluoromethyl)pyridine] came in with a melting point of more than 230 °C. Besides, in data set [1] (setting [2]), the solubility at 24 h was 5 µg/mL (≈ 10.8 µM). Also, the solubility at 24 h in data set [1] (setting [3]) is less than 0.3 µg/mL.

Turning to `COc1cc(-c2c[nH]c(-c3ccc(F)nc3)n2)ccc1OCc1ncccc1F` [Example 119], the melting point lay in the range of 68 to 79 °C. Also, in data set [1] (setting [2]), the solubility at 24 h is 44.7 µg/mL (≈ 113 µM). Moreover, the solubility at 24 h in data set [1] (setting [3]) came to 5.2 µg/mL (≈ 13.2 µM).

In turn, `COc1cc(-c2c[nH]c(C3CCCCC3)n2)cc(OC)c1OCc1ccc(C(F)(F)F)cn1` [Example 76] registered a melting point of 183 to 186 °C. For the same compound, the solubility at 24 h in data set [1] (setting [2]) is less than 8.5 µg/mL. In addition, the solubility at 24 h in data set [1] (setting [3]) is 1 µg/mL (≈ 2.17 µM).

Compound `COc1cc(-c2c[nH]c(C3CCCCC3)n2)ccc1OCc1ccc(C(F)(F)F)cn1` [Example 81] had a melting point of 135 to 145 °C. The solubility at 24 h in data set [1] (setting [2]) was 78.7 µg/mL (≈ 182 µM). Besides, the solubility at 24 h in data set [1] (setting [3]) worked out at 5.8 µg/mL (≈ 13.4 µM).

On to `COc1cc(OCc2ccc(C(F)(F)F)cn2)ccc1-c1c[nH]c(C2CCC(F)(F)CC2)n1` [Example 61], for which the melting point was in the range of 232 to 237 °C. In data set [1] (setting [2]), the solubility at 24 h is more than 101 µg/mL. The solubility at 24 h in data set [1] (setting [3]) was 1.6 µg/mL (≈ 3.42 µM).

Compound `COc1cc(OC(C)c2ncc(C(F)(F)F)cc2F)ccc1-c1[nH]c(-c2ccc(F)nc2)nc1Cl` (stereo not drawn) [Example 289] displayed a melting point of 155 to 159 °C. The solubility at 24 h in data set [1] (setting [2]) is 10.8 µg/mL (≈ 21.1 µM). Also, in data set [1] (setting [3]), the solubility at 24 h came out at 2.2 µg/mL (≈ 4.31 µM).

Take `COc1cc(OCc2ccc(C(F)(F)F)cn2)ccc1-c1c[nH]c(-c2ccccn2)n1` [Example 88]: the melting point was in the range of 214 to 216 °C. Besides, the solubility at 24 h in data set [1] (setting [2]) was 54.1 µg/mL (≈ 127 µM). Also, the solubility at 24 h in data set [1] (setting [3]) was 0.5 µg/mL (≈ 1.17 µM).

The compound `COc1cc(-c2c[nH]c(C34CC5CC(CC(C5)C3)C4)n2)ccc1OCc1ccc(C(F)(F)F)cn1` [Example 67] had a melting point of 209 to 217 °C. For the same compound, in data set [1] (setting [2]), the solubility at 24 h is 93.5 µg/mL (≈ 193 µM). Moreover, in data set [1] (setting [3]), the solubility at 24 h stood at 0.4 µg/mL (≈ 0.827 µM).

`COc1cc(OCc2ccc(C(F)(F)F)cn2)ccc1-c1nc(-c2ccc(F)nc2)[nH]c1Br` [Example 223] returned a melting point of 176 to 178 °C. Moreover, the solubility at 24 h in data set [1] (setting [2]) was more than 105 µg/mL. For the same compound, the solubility at 24 h in data set [1] (setting [3]) was less than 0.4 µg/mL.

The compound `COc1cc(OCc2ncc(F)cc2F)ccc1-c1cnc(-c2ccc(F)nc2)[nH]1` [Example 140] came in with a melting point of 188 to 191 °C. In addition, the solubility at 24 h in data set [1] (setting [2]) was 7.8 µg/mL (≈ 18.9 µM). In data set [1] (setting [3]), the solubility at 24 h was 4.8 µg/mL (≈ 11.6 µM).

`COc1cc(OCc2ncc(C(F)(F)F)cc2F)ccc1-c1cnc(-c2ccc(Cl)nc2)[nH]1` [Example 102] had a melting point of 164 to 186 °C. The solubility at 24 h in data set [1] (setting [2]) is 92.5 µg/mL (≈ 193 µM). Also, the solubility at 24 h in data set [1] (setting [3]) is 8.9 µg/mL (≈ 18.6 µM).

In turn, `COc1cc(OCc2ccc(C(F)(F)F)nc2)ccc1-c1cnc(C2CC(F)(F)C2)[nH]1` [Example 4] displayed a melting point of 167 to 169 °C. The solubility at 24 h in data set [1] (setting [2]) was 86.6 µg/mL (≈ 197 µM). Also, the solubility at 24 h in data set [1] (setting [3]) came out at 0.9 µg/mL (≈ 2.05 µM).

On to `COc1cc(OCc2ccc(C(F)(F)F)nc2)ccc1-c1nc(-c2ccc(Cl)cn2)[nH]c1Cl` [Example 228], for which the melting point lay in the range of 193 to 196 °C. Moreover, the solubility at 24 h in data set [1] (setting [2]) was 9.7 µg/mL (≈ 19.6 µM). Also, in data set [1] (setting [3]), the solubility at 24 h amounted to 2.6 µg/mL (≈ 5.25 µM).

For the compound `COc1cc(OCc2ccc(C(F)(F)F)cn2)ccc1-c1c[nH]c(C2CCCCCC2)n1` [Example 75], the melting point is 202 to 204 °C (dec.). In data set [1] (setting [2]), the solubility at 24 h is 83.1 µg/mL (≈ 187 µM). Also, in data set [1] (setting [3]), the solubility at 24 h was determined as 1 µg/mL (≈ 2.24 µM).

Take `COc1cc(OCn2cccn2)ccc1-c1[nH]c(C2CCC(F)(F)CC2)nc1Cl` [Example 196]: the melting point was in the range of 182 to 184 °C. Moreover, in data set [1] (setting [2]), the solubility at 24 h was more than 85 µg/mL. Moreover, the solubility at 24 h in data set [1] (setting [3]) is less than 7.5 µg/mL.

Compound `COc1cc(OCc2cccc(C#N)n2)ccc1-c1cnc(C2CCC(F)(F)CC2)[nH]1` [Example 8] returned a melting point of 195 to 197 °C. Further, the solubility at 24 h in data set [1] (setting [2]) is 83.6 µg/mL (≈ 197 µM). Also, the solubility at 24 h in data set [1] (setting [3]) is less than 0.3 µg/mL.

`COc1cc(-c2nc(-c3ccc(Cl)cn3)[nH]c2C)ccc1OCc1ccc(C(F)(F)F)nc1` [Example 29] returned a melting point of 267 to 269 °C. Also, in data set [1] (setting [2]), the solubility at 24 h was 3 µg/mL (≈ 6.32 µM). Also, in data set [1] (setting [3]), the solubility at 24 h amounted to 0.6 µg/mL (≈ 1.26 µM).

As for `COc1cc(OCc2ccc(Br)cc2F)ccc1-c1c[nH]c(-c2ccncc2)n1` [Example 98], the melting point is 226 to 230 °C. Moreover, the solubility at 24 h in data set [1] (setting [2]) was 37.1 µg/mL (≈ 81.7 µM). In data set [1] (setting [3]), the solubility at 24 h was determined as 1.3 µg/mL (≈ 2.86 µM).

As for `COc1cc(OCc2ccc(C(F)(F)F)cn2)ccc1-c1c[nH]c(-c2ccc(N3CCCC3)nc2)n1` [Example 58], the melting point is 227 to 231 °C (dec.). For the same compound, the solubility at 24 h in data set [1] (setting [2]) is 94.4 µg/mL (≈ 191 µM). Also, the solubility at 24 h in data set [1] (setting [3]) is 16.5 µg/mL (≈ 33.3 µM).

`COc1cc(-c2c[nH]c(C3CCC(F)(F)CC3)n2)ccc1OCc1ccc(C(F)(F)F)cn1` [Example 62] registered a melting point of more than 250 °C. Further, in data set [1] (setting [2]), the solubility at 24 h was more than 101 µg/mL. For the same compound, the solubility at 24 h in data set [1] (setting [3]) is 1.3 µg/mL (≈ 2.78 µM).

Take `COc1cc(-c2c[nH]c(-c3ccc(Cl)nc3)n2)ccc1OCc1ccc(C(F)(F)F)cn1` [Example 93]: the melting point is more than 280 °C. For the same compound, the solubility at 24 h in data set [1] (setting [2]) is 10 µg/mL (≈ 21.7 µM). For the same compound, the solubility at 24 h in data set [1] (setting [3]) was 0.9 µg/mL (≈ 1.95 µM).

As for `COc1cc(OCc2ccc(C(F)(F)F)cn2)ccc1-c1cn(C)c(-c2ccc(F)nc2)n1` [Example 151, 2-fluoro-5-[4-[2-methoxy-4-((5-(trifluoromethyl)pyridin-2-yl)methoxy)phenyl]-1-methyl-1H-imidazol-2-yl]pyridine], the melting point is 168 to 171 °C. Further, in data set [1] (setting [2]), the solubility at 24 h is more than 92 µg/mL. Besides, the solubility at 24 h in data set [1] (setting [3]) was found to be 0.9 µg/mL (≈ 1.96 µM).

The compound `COc1cc(OCc2ccc(C(F)(F)F)cn2)ccc1-c1c(C)nc(-c2ccc(F)nc2)n1C` [Example 159] came in with a melting point of 136 to 138 °C. Also, the solubility at 24 h in data set [1] (setting [2]) is more than 94 µg/mL. Further, the solubility at 24 h in data set [1] (setting [3]) worked out at 4 µg/mL (≈ 8.47 µM).

As for `COc1cc(OCc2ccc(C(F)(F)F)nc2)ccc1-c1c[nH]c(-c2ccc(F)cn2)n1` [Example 26], the melting point lay in the range of 176 to 178 °C. For the same compound, the solubility at 24 h in data set [1] (setting [2]) is 8.7 µg/mL (≈ 19.6 µM). The solubility at 24 h in data set [1] (setting [3]) turned out to be 1.3 µg/mL (≈ 2.93 µM).

For `COc1cc(-c2c[nH]c(C3CCCC3)n2)ccc1OCc1ccc(C(F)(F)F)cn1` [Example 78], the melting point lay in the range of 207 to 210 °C. Further, in data set [1] (setting [2]), the solubility at 24 h was more than 83 µg/mL. Besides, the solubility at 24 h in data set [1] (setting [3]) turned out to be 20.6 µg/mL (≈ 49.3 µM).

Consider `COc1cc(-c2c[nH]c(C3CCC(C(C)(C)C)CC3)n2)ccc1OCc1ccc(C(F)(F)F)cn1` (stereo not drawn) [Example 69], for which the melting point lay in the range of 159 to 161 °C. In addition, the solubility at 24 h in data set [1] (setting [2]) was 5.3 µg/mL (≈ 10.9 µM). The solubility at 24 h in data set [1] (setting [3]) worked out at 1.3 µg/mL (≈ 2.67 µM).

For the compound `COc1cc(OCc2ccc(C(F)(F)F)nc2)ccc1-c1c(Cl)nc(-c2ccc(F)nc2)n1C` [Example 311], the melting point was 138 to 140 °C. The solubility at 24 h in data set [1] (setting [2]) was 5.6 µg/mL (≈ 11.4 µM). Also, in data set [1] (setting [3]), the solubility at 24 h was less than 0.4 µg/mL.

Turning to `COc1cc(-c2cnc(-c3ccc(F)nc3)[nH]2)ccc1OCc1ccc(C(F)(F)F)nc1` [Example 116], the melting point was in the range of 144 to 146 °C. Besides, the solubility at 24 h in data set [1] (setting [2]) was 24.1 µg/mL (≈ 54.2 µM). Besides, the solubility at 24 h in data set [1] (setting [3]) was less than 1.6 µg/mL.
